Reference: publication PMC6832952, “Synthesis and Evaluation of Pyrimidine Steroids as Antiproliferative Agents” (Molecules, 2019)
Like-named read-outs stand apart in the source and are kept apart here.

Legend:
T-47D (breast) cells = experiment: Growth inhibition assay (NCI protocol), T-47D; format: cell-based, human; conditions: Homo sapiens, T47D; 48 h exposure
From the text: (§1) We studied the antiproliferative activity of α,β-unsaturated ketones (2 and 6) and steroidal pyrimidines (3 and 7) against human cell lines following the guidelines of the National Cancer Institute. For the tests we selected five human solid tumor cell lines from diverse origins and one human fibroblast cell line as a model of non-tumor cells. These cell lines were chosen as representative of drug sensitive (A549, HBL-100, and HeLa) and drug resistant (T-47D and WiDr) monolayer cultures based on previous studies. The steroidal anticancer drugs abiraterone and galeterone were also tested for comparison purposes. […] This is a relevant finding, since our compounds are non-toxic to healthy cells, whilst the steroidal anticancer drugs inhibit the growth of fibroblasts at GI50 values as low as 4.5–5 µM.
(§2) The following densities (cells per well) were used: 2500 (A549, HBL-100, HeLa and SW1573), 5000 (T-47D, WiDr and SW1573/PGP), and 7000 (BJ-hTERT). […] Abiraterone and galeterone were used as reference drugs for antiproliferative tests, verapamil was used as a P-gp transport inhibitor in SW1573/Pgp experiments, and their stock solutions were prepared in DMSO at 40 mM. Paclitaxel and vinblastine were used as positive controls in SW1573/Pgp experiments and were initially dissolved in DMSO at 4 mM. For each test compound, the cells were exposed to serial decimal dilutions in the range of 0.001–100 μM for a period of 48 h. Cell culture medium containing verapamil was prepared by adding the final concentration of verapamil of 10 μM. For each product GI50 values were calculated according to the NCI formulas.

[1] = tested on: A549 (non-small cell lung) cells; experiment: Growth inhibition assay (NCI protocol), A549; format: cell-based, human; conditions: Homo sapiens, A549; 48 h exposure
From the text: as §1, §2

HBL-100 (breast) cells = experiment: Growth inhibition assay (NCI protocol), HBL-100; format: cell-based, human; conditions: Homo sapiens, HBL-100; 48 h exposure
From the text: as §1, §2

[2] = tested on: BJ-hTERT human fibroblast cells; experiment: Growth inhibition assay (NCI protocol), BJ-hTERT fibroblasts; format: cell-based; conditions: Homo sapiens, Fibroblast; 48 h exposure; non-tumor cells
From the text: as §1, §2

WiDr (colon) cells = experiment: Growth inhibition assay (NCI protocol), WiDr; format: cell-based, human; conditions: Homo sapiens, WiDr; 48 h exposure
From the text: as §1, §2

HeLa (cervix) cells = experiment: Growth inhibition assay (NCI protocol), HeLa; format: cell-based, human; conditions: Homo sapiens, HeLa; 48 h exposure
From the text: as §1, §2

P-glycoprotein 1 (P-gp) = target: T1, P-glycoprotein 1 (P-gp) (Homo sapiens, UniProt P08183); experiment: P-glycoprotein assay (SW1573/PGP vs SW1573, resistance factor); format: cell-based; conditions: for Rf w Verapamil / Rf w/o Verapamil: ratio between GI50 values in SW1573/PGP and SW1573 cells; for Rf w Verapamil: with 10 µM verapamil; for Rf w/o Verapamil: without verapamil
T1 construct: its P-gp overexpressing variant (SW1573/PGP); endogenous in cells; host or cells: SW1573 and SW1573/PGP (SW1573/Pgp) human non-small cell lung cancer cells, provided by Dr. G. J. Peters (Amsterdam)
T1 sequence (P08183 whole entry): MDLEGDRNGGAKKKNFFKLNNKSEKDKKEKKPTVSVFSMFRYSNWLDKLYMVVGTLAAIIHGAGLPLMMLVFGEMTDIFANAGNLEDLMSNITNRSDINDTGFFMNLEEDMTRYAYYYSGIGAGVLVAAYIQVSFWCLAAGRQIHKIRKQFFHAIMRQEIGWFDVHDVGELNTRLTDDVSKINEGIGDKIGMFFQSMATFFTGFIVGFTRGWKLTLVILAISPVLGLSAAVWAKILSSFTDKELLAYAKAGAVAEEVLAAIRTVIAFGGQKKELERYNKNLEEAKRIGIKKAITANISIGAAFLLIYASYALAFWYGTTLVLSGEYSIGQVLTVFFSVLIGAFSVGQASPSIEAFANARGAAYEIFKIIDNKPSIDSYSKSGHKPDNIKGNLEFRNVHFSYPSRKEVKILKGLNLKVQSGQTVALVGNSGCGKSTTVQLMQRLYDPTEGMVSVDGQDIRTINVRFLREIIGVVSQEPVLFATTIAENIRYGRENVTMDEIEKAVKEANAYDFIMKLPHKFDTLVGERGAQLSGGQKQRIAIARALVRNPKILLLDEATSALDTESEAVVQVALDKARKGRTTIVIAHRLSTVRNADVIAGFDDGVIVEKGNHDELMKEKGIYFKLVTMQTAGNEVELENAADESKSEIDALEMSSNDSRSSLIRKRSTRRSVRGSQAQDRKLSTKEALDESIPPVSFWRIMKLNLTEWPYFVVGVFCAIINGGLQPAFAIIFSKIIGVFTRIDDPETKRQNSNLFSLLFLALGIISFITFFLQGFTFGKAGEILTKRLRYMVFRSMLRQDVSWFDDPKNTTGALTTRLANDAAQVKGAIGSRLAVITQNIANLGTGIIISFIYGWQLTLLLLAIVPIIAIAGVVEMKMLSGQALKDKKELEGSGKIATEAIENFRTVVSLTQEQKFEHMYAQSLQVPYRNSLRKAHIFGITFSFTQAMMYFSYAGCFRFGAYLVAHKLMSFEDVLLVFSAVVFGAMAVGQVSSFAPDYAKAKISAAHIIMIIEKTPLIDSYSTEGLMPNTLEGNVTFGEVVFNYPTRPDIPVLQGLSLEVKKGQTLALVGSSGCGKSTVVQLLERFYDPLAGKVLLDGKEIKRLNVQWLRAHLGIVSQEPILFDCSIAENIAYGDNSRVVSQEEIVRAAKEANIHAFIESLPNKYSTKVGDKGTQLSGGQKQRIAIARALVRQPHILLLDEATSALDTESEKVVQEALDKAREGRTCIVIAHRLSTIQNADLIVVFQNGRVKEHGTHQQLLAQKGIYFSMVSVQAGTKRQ
From the text: (§3) Next, we studied if the compounds could be substrates for P-glycoprotein 1 (P-gp). P-gp is an important protein of the cell membrane that pumps xenobiotics out of cells. One of the resistance mechanisms to anticancer drugs involves the overexpression of P-gp by cancer cells, rendering these cancers multidrug resistant. Therefore, it is relevant to know whether compounds are substrates for P-gp or not. As a model to test the effect of P-gp overexpression in our compounds, we used a cell line-based assay. We selected one wild type human lung cancer cell line (SW1573) and its P-gp overexpressing variant (SW1573/PGP). In this test, cells were exposed to the compounds for 48 h in the absence or the presence of 10 µM verapamil, a well-known P-gp inhibitor [20].
(§4) The antiproliferative activity was tested in vitro against human cancer cells using the protocol of the National Cancer Institute (NCI) of the USA16 with minor modifications. The following densities (cells per well) were used: 2500 (A549, HBL-100, HeLa and SW1573), 5000 (T-47D, WiDr and SW1573/PGP), and 7000 (BJ-hTERT). Samples for testing were dissolved initially in DMSO at 40 mM, i.e., 400 times the maximum test concentration. Abiraterone and galeterone were used as reference drugs for antiproliferative tests, verapamil was used as a P-gp transport inhibitor in SW1573/Pgp experiments, and their stock solutions were prepared in DMSO at 40 mM. Paclitaxel and vinblastine were used as positive controls in SW1573/Pgp experiments and were initially dissolved in DMSO at 4 mM. For each test compound, the cells were exposed to serial decimal dilutions in the range of 0.001–100 μM for a period of 48 h. Cell culture medium containing verapamil was prepared by adding the final concentration of verapamil of 10 μM. For each product GI50 values were calculated according to the NCI formulas.

P-gp = experiment: in vitro; conditions: human
From the text: as §3
(§5) The human solid tumor cell lines A549 (non-small cell lung), HBL-100 (breast), and HeLa (cervix), SW1573 (non-small cell lung), and its P-gp overexpressing variant (SW1573/Pgp), T-47D (breast), and WiDr (colon) were used in this study. These cell lines used in this study were kindly provided by Dr. Godefridus J. Peters (Cancer Center Amsterdam, Vrije Universiteit, Amsterdam, The Netherlands). BJ-hTERT human fibroblast cells were given by Dr. Raimundo Freire (Universidad de La Laguna, Canary Islands). All cells were grown in RPMI 1640 supplemented with 1 mM glutamine, 5% FBS and antibiotics. Cells were grown at 37 °C in a humidified atmosphere of 5% CO2 and maintained at low passage.
as §4

[3] = tested on: SW1573 (non-small cell lung) cells; experiment: Growth inhibition assay, SW1573 wild type; format: cell-based, human; conditions: Homo sapiens, SW1573, 48 h, without verapamil, read-out: GI50 SW1573 w/o Verapamil
From the text: as §3, §5, §4

[4] = tested on: human solid tumor cell lines; experiment: Antiproliferative activity against the panel of human solid tumor cell lines; format: cell-based; conditions: A549, HBL-100, HeLa, T-47D, WiDr, read-out: GI50 range against all tumor cells
From the text: as §5
The antiproliferative activity was tested in vitro against human cancer cells using the protocol of the National Cancer Institute (NCI) of the USA16 with minor modifications. The following densities (cells per well) were used: 2500 (A549, HBL-100, HeLa and SW1573), 5000 (T-47D, WiDr and SW1573/PGP), and 7000 (BJ-hTERT). Samples for testing were dissolved initially in DMSO at 40 mM, i.e., 400 times the maximum test concentration. […] For each product GI50 values were calculated according to the NCI formulas.

SMILES | GI50 (T-47D (breast) cells) [µM] | GI50 [1] [µM] | GI50 (HBL-100 (breast) cells) [µM] | GI50 [2] [µM] | GI50 (WiDr (colon) cells) [µM] | GI50 (HeLa (cervix) cells) [µM] | substrate for P-gp (P-glycoprotein 1 (P-gp); SW1573 vs SW1573/PGP, with or without 10 µM verapamil) | Rf w Verapamil (P-glycoprotein 1 (P-gp)) | Rf w/o Verapamil (P-glycoprotein 1 (P-gp)) | GI50 at 48 h (P-gp) [µM] | GI50 [3] [µM] | melting point [°C] | GI50 [4] [µM] | GI50 ([3]; reference drugs PTX and VB) [µM]
C[C@]12CC[C@H](O)CC1=CC[C@@H]1[C@@H]2CC[C@]2(C)C(c3cccnc3)=CC[C@@H]12 [Abiraterone, abiraterone, reference compound] | 24 ± 4.5 | 95 ± 0.8 | > 100 | 4.5 ± 1 | 42 ± 7.7 | 7.9 ± 0.5 |  |  |  |  |  |  |  | 
C[C@]12CC[C@H]3[C@@H](CC=C4C[C@@H](O)CC[C@@]43C)[C@@H]1CC[C@@H]2C(=O)/C=C/c1ccccc1 [Compound 2, (E)-21-benzyliden-3β-hydroxypregn-5-en-20-one] | 9.9 ± 3.5 | 23 ± 1.6 | 19 ± 3.7 | > 100 | 6.3 ± 0.5 | 3.3 ± 0.3 | not substrates for P-gp | 1.5 | 1.2 | 29 ± 5.5 | 23 ± 0.2 |  |  | 
C[C@]12CCC3C(CC=C4C[C@@H](O)CC[C@@]43C)C1CCC2C1=CC(c2ccccc2)NC(=N)N1 (stereo partly drawn) [Compound 3a, 17β-(2′-imino-1′,3′,6′-trihydro-6′-phenylpyrimidin-4′-yl)-androst-5-en-3β-ol] | 8.8 ± 2.2 | 4.4 ± 1 | 23 ± 2.8 | > 100 | 8.3 ± 1.1 | 6.1 ± 1.2 |  | 0.7 | 1.5 | 10 ± 4.2 | 6.9 ± 0.5 | 128 |  | 
C[C@]12CCC3C(CC=C4C[C@@H](O)CC[C@@]43C)C1CCC2C1=CC(c2ccccc2)NC(=O)N1 (stereo partly drawn) [Compound 3b, 17β-(1′,3′,6′-trihydro-2′-oxo-6′-phenylpyrimidin-4′-yl)-androst-5-en-3β-ol] | 15 ± 1.3 | 11 ± 2.9 | 16 ± 1.3 | 97 ± 5.9 | 15 ± 3.5 | 14 ± 3.6 |  | 1.6 | 1.9 | 34 ± 13 |  | 108 to 110 |  | 
C[C@]12CCC3C(CC=C4C[C@@H](O)CC[C@@]43C)C1CCC2C1=CC(c2ccccc2)NC(=S)N1 (stereo partly drawn) [Compound 3c, 17β-(1′,3′,6′-trihydro-6′-phenyl-2′-thioxopyrimidin-4′-yl)-androst-5-en-3β-ol] | 13 ± 2.3 | 7.7 ± 1 | 45 ± 7.9 | > 100 | 9.2 ± 1.6 | 11 ± 1.5 |  | 1.8 | 3.2 | 38 ± 6.1 | 12 ± 2.7 | 208 to 210 |  | 
CC1=C2C(CC3C4CC=C5C[C@@H](O)CC[C@]5(C)C4CC[C@]23C)NC(=O)N1 (stereo partly drawn) [Compound 7b, 1′,3′-dihydro-4′-methyl-2′-oxopyrimidin-(6′,5′:16,17)-androst-5-en-3β-ol] | 15 ± 1.9 | 13 ± 3.7 | 15 ± 3.2 | > 100 | 18 ± 1.8 | 3.4 ± 0.2 |  | 1.4 | 1.5 | 49 ± 4.4 | 34 ± 4.7 | 163 to 164 |  | 
CC1=C2C(CC3C4CC=C5C[C@@H](O)CC[C@]5(C)C4CC[C@]23C)NC(=S)N1 (stereo partly drawn) [Compound 7c, 1′,3′-dihydro-4′-methyl-2′-thionepyrimidin-(6′,5′:16, 17)-androst-5-en-3β-ol] | 3 ± 0.5 | 3.4 ± 0.5 | 3.7 ± 1 | > 100 | 3.1 ± 0.4 | 2.6 ± 0.7 |  | 1.1 | 1.7 | 16 ± 1.3 | 9.4 ± 1 | 208 to 210 | 2.6 to 3.7 | 
C[C@]12CC[C@H](O)CC1=CC[C@@H]1[C@@H]2CC[C@]2(C)C(n3cnc4ccccc43)=CC[C@@H]12 [Galeterone, galeterone, reference compound] | 2.1 ± 0.1 | 3.9 ± 1.3 | 10 ± 0.9 | 5 ± 1.3 | 2.7 ± 0.2 | 5.3 ± 0.4 |  |  |  |  |  |  |  | 
CC(=O)O[C@H]1C(=O)[C@@]2(C)[C@H]([C@H](OC(=O)c3ccccc3)[C@]3(O)C[C@H](OC(=O)[C@H](O)[C@@H](NC(=O)c4ccccc4)c4ccccc4)C(C)=C1C3(C)C)[C@]1(OC(C)=O)CO[C@@H]1C[C@@H]2O [PTX, Paclitaxel, reference compound] |  |  |  |  |  |  |  | 2.6 | 128 | 0.196 ± 0.053 |  |  |  | 0.0015 ± 0.0005
CC[C@]1(O)C[C@@H]2CN(CCc3c([nH]c4ccccc34)[C@@](C(=O)OC)(c3cc4c(cc3OC)N(C)[C@H]3[C@@](O)(C(=O)OC)[C@H](OC(C)=O)[C@]5(CC)C=CCN6CC[C@]43[C@@H]65)C2)C1 [VB, vinblastine, reference compound] |  |  |  |  |  |  |  | 1.3 | 2388 | 2.05 ± 0.682 |  |  |  | 0.0009 ± 0.0003
